Laboratory results taken from US9497973B2, “Elasmobranch-repelling compounds, methods of use and devices” (priority 2005, dated 2016).
Structures can show the parent of a compound that is named as a salt.

How the values were obtained:
[1] = tested on: young Lemon Sharks (Negaprion brevirostris); settings: in vivo; cited from earlier work
[2] = tested on: blue sharks and great white sharks; settings: squirted into the mouth; cited from earlier work
[3] = tested on: sharks; settings: cited from earlier work
[4] = tested on: several species of sharks; settings: shark pens at Bimini, Bahamas; cited from earlier work
[5] = tested on: tiger sharks and other fish; settings: in vivo; cited from earlier work
[6] = tested on: sharks; settings: in vivo
[7] = tested on: at least four species of sharks; settings: cited from earlier work
[8] = room temperature, heat; cited from earlier work

## CCCCCCCCCCCCOS(=O)(=O)[O-].[Li+] [LLS]
[1]
  repelling captive Lemon Sharks, compared with pardaxin: even more effective than pardaxin

## CCCCCCCCCCCCOS(=O)(=O)[O-].[Na+] [SLS]
[2]
  repellency against blue sharks and great white sharks: effective repellent
[1]
  repelling captive Lemon Sharks, compared with pardaxin: even more effective than pardaxin
[3]; in vivo
  effectiveness in surrounding-cloud-mode dispersions: not effective

## CCCCCCCCCCCCOS(=O)(=O)O [dodecyl sulfate]
[3]; requirement 100 parts per billion (0.1 ppm or 100 micrograms/Liter)
  meeting the Navy's potency requirement for a nondirectional surrounding-cloud type repellent: did not meet

## copper acetate
[4]
  repelling or inhibiting feeding activities: fails to repel or inhibit the feeding activities
[5]
  efficacy against tiger sharks and other fish: inefficacy
[6]
  effectiveness as a shark repellent: ineffective

## pardaxin
[7]; freeze-dried form
  effectiveness relative to the fresh secretion: 30%
[7]; laboratory and open sea, at least four species
  time for which sharks were repelled: ≥ 10 h
[8]
  storage stability: not stable for room temperature storage, and was heat-sensitive
